Assay results as given in PubChem BioAssay AID1794821.

Molecular target: Sodium/hydrogen exchanger 9B2 (Homo sapiens) (UniProt Q86UD5)
Experiment: SLC9B2 sodium/proton exchange inhibitors – cell-based, pHluorin biosensor fluorescence, HEK-293, SLC9B2 overexpression, dose response (AID 1794821)
Settings: HEK-293 SLC9B2 OE, pHluorin pH biosensor fluorescence

Sodium/hydrogen exchanger 9B2 (Homo sapiens), sequence (Q86UD5 whole entry, looked up): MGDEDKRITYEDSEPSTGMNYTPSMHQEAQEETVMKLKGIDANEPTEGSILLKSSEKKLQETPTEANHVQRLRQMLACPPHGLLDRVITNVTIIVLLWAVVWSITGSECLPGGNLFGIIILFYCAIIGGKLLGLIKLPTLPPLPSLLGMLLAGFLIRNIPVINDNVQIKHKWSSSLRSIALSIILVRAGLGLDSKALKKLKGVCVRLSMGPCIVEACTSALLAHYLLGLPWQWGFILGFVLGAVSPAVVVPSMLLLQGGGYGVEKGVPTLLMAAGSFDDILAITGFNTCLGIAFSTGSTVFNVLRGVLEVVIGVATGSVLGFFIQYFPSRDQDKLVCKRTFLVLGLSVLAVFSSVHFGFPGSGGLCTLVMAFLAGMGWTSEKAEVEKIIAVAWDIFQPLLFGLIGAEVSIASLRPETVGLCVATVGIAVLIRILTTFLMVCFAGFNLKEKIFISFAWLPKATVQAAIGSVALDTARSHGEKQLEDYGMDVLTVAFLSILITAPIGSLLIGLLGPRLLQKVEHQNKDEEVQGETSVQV

IC50: 90 µM
SMILES: O=C(CCc1ccc(O)cc1)c1c(O)cc(O)cc1O
